In patent US20250188404A1, “CULTURE CAPSULE AND METHOD FOR RES[…] IN VIABLE BUT NON-CULTURABLE (VBNC) STATE” (Innovation Center of Yangtze River Delta, ZJU, priority 2023, published 2025):

Test system: Salmonella ATCC14028 in a special dormant state
Assay: Resuscitation ("awakening") of VBNC Salmonella by nutrient added alone, pour-plate colony growth
Type: cell-based
Settings: nutrient not encapsulated, more than 3 g egg yolk lecithin or more than 0.22 g cholesterol per 20 mL bacterial solution, static incubation 1 d to 7 d
Experimental: In the examples of the present disclosure, induced preparation of Salmonella ATCC14028 in a special dormant state: single colonies of Salmonella ATCC14028 are inoculated in a liquid medium and cultivated at 37° C. and 180 rpm to a late logarithmic stage; a resulting bacterial solution is centrifuged at 6,000 rpm for 10 min, and a resulting supernatant is discarded; a resulting precipitate is washed twice with phosphate buffered saline (PBS) and then re-dissolved with PBS for later use, and a resulting bacterial solution is serially diluted to a concentration of 1*10^8 CFU/mL; 18 mL of PBS is added to a 50 mL centrifuge tube, the centrifuge tube is heated in a 60±2° C. water bath, and after the temperature in the centrifuge tube reaches 60±2° C., 2 mL of a 1*10^8 CFU/mL bacterial solution is added to the centrifuge tube; a diluted bacterial solution is magnetically stirred and heated for 20 min, and then immediately taken out and placed in ice for later use; a cooled bacterial solution is centrifuged at 7,000 rpm for 10 min, a resulting supernatant is discarded, and PBS is added to 20 mL for re-dissolution; and the treated bacterial solution is subjected to staining with a Live/Dead BacLight kit, and then the number of viable bacteria in the treated bacterial solution is detected by flow cytometry. […]

SMILES: CC(C)CCC[C@@H](C)[C@H]1CC[C@H]2[C@@H]3CC=C4C[C@@H](O)CC[C@]4(C)[C@H]3CC[C@]12C [cholesterol]
- "awakening" of bacteria in a special dormant state (growth of colonies): can “awaken” bacteria in a special dormant state
